Measured values reported in ChEMBL document CHEMBL1201862, “PubChem BioAssay data set” (2004).
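A five-concentration, 48-hour dose response in 96-well plates underlies each endpoint, interpolated linearly between surrounding concentrations. GI50: concentration for 50% inhibition of growth.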 The source made the active and inactive calls. Rule as the data show it: active = GI50 up to about 1.1 µM and inactive = higher.

Assays:
Assay in all cases: NCI-60 cell line screen, 48 h
[1] = system: SN12C
[2] = system: CCRF-CEM
[3] = system: SK-MEL-28
[4] = system: MOLT-4
[5] = system: MDA-MB-231
[6] = system: HOP-62
[7] = system: T47D
[8] = system: NCI-H23
[9] = system: SR
[10] = system: HL-60
[11] = system: OVCAR-5
[12] = system: OVCAR-4
[13] = system: TK-10
[14] = system: SF-539
[15] = system: DU-145
[16] = system: IGROV-1
[17] = system: PC-3
[18] = system: UO-31
[19] = system: MDA-MB-435
[20] = system: NCI-H226

In the case of O=C1NC(=O)C(C(CC(=O)c2ccc([N+](=O)[O-])cc2)c2ccccc2)C(=O)N1 (stereo not given), the GI50 [1] is reported as > 100 µM (inactive), the GI50 [2] is reported as 35.2 µM (inactive) and the GI50 [3] is reported as > 100 µM (inactive). For the same compound, the GI50 [4] was 73.3 µM (inactive), the GI50 [5] was > 100 µM (inactive) and the GI50 [6] was > 100 µM (inactive). For the same compound, the GI50 [7] was 20.5 µM (inactive), the GI50 [8] was 20.7 µM (inactive) and the GI50 [9] was 40 µM (inactive). For the same compound, the GI50 [10] was > 100 µM (inactive), the GI50 [11] was > 100 µM (inactive) and the GI50 [12] was > 100 µM (inactive). The GI50 [13] was 0.0471 µM (active), the GI50 [14] was > 100 µM (inactive) and the GI50 [15] was > 100 µM (inactive). For the same compound, the GI50 [16] was > 100 µM (inactive), the GI50 [17] was 55.8 µM (inactive) and the GI50 [18] was > 100 µM (inactive). For the same compound, the GI50 [19] was 49.8 µM (inactive) and the GI50 [20] was > 100 µM (inactive).
With C=CCO/N=C/c1cc(/N=C(/S)c2ccoc2C)ccc1Cl the GI50 [1] was 12.8 µM (inactive), the GI50 [2] was 33.3 µM (inactive) and the GI50 [3] was 37.8 µM (inactive). For the same compound, the GI50 [4] was 5.71 µM (inactive), the GI50 [5] was 13.3 µM (inactive) and the GI50 [6] was 14.4 µM (inactive). For the same compound, the GI50 [7] was 3.65 µM (inactive), the GI50 [8] was 10 µM (inactive) and the GI50 [9] was 6.22 µM (inactive). The GI50 [10] was 20.6 µM (inactive), the GI50 [11] was 16.6 µM (inactive) and the GI50 [12] was 5.18 µM (inactive). The GI50 [13] was 16.6 µM (inactive), the GI50 [14] was 25.4 µM (inactive) and the GI50 [15] was 14 µM (inactive). For the same compound, the GI50 [16] was 13.2 µM (inactive), the GI50 [17] was 11.4 µM (inactive) and the GI50 [18] was 5.15 µM (inactive). The GI50 [19] was 19.1 µM (inactive) and the GI50 [20] was 15.9 µM (inactive).
With CC(Br)C(=O)NN1C2=C(Nc3ccccc31)c1cccc3cccc2c13 (stereo not given) the GI50 [1] was > 100 µM (inactive), the GI50 [2] was 61.4 µM (inactive) and the GI50 [3] was > 100 µM (inactive). The GI50 [4] was 36.6 µM (inactive), the GI50 [5] was > 100 µM (inactive) and the GI50 [6] was 22 µM (inactive). The GI50 [7] was 2.29 µM (inactive), the GI50 [8] was > 100 µM (inactive) and the GI50 [9] was 41 µM (inactive). The GI50 [10] was 57.5 µM (inactive), the GI50 [11] was > 100 µM (inactive) and the GI50 [13] was 96.4 µM (inactive). For the same compound, the GI50 [14] was > 100 µM (inactive), the GI50 [15] was > 100 µM (inactive) and the GI50 [16] was 34.4 µM (inactive). For the same compound, the GI50 [17] was > 100 µM (inactive), the GI50 [18] was > 100 µM (inactive) and the GI50 [19] was > 100 µM (inactive). The GI50 [20] was > 100 µM (inactive).
In the case of O=C(n1c(=O)n(-c2ccc(Cl)cc2)c(=O)n1C(=O)C(Cl)(Cl)Cl)C(Cl)(Cl)Cl, the GI50 [1] is reported as > 100 µM (inactive), the GI50 [2] is reported as > 100 µM (inactive) and the GI50 [3] is reported as > 100 µM (inactive). For the same compound, the GI50 [4] was > 100 µM (inactive), the GI50 [5] was 7.67 µM (inactive) and the GI50 [6] was > 100 µM (inactive). For the same compound, the GI50 [7] was > 100 µM (inactive), the GI50 [8] was > 100 µM (inactive) and the GI50 [9] was > 100 µM (inactive). The GI50 [10] was > 100 µM (inactive), the GI50 [11] was > 10 µM (inactive) and the GI50 [12] was > 100 µM (inactive). The GI50 [13] was > 100 µM (inactive), the GI50 [14] was > 100 µM (inactive) and the GI50 [15] was > 100 µM (inactive). For the same compound, the GI50 [16] was > 100 µM (inactive), the GI50 [17] was > 100 µM (inactive) and the GI50 [18] was 31 µM (inactive). The GI50 [19] was 31.6 µM (inactive).
O=[N+]([O-])c1ccc(C2NC(=S)NC3c4cc([N+](=O)[O-])ccc4CCCC23)cc1 (stereo not given) was tested, and the GI50 [1] was > 100 µM (inactive), the GI50 [2] was 39.4 µM (inactive) and the GI50 [3] was > 100 µM (inactive). For the same compound, the GI50 [4] was > 100 µM (inactive), the GI50 [5] was > 100 µM (inactive) and the GI50 [6] was 57.4 µM (inactive). For the same compound, the GI50 [7] was 35.6 µM (inactive), the GI50 [8] was 67.3 µM (inactive) and the GI50 [9] was > 100 µM (inactive). For the same compound, the GI50 [10] was > 100 µM (inactive), the GI50 [11] was > 100 µM (inactive) and the GI50 [12] was 56.4 µM (inactive). The GI50 [13] was > 100 µM (inactive), the GI50 [14] was 39.1 µM (inactive) and the GI50 [15] was 33 µM (inactive). The GI50 [16] was 36.9 µM (inactive), the GI50 [17] was 55.7 µM (inactive) and the GI50 [18] was 63.8 µM (inactive). For the same compound, the GI50 [19] was > 100 µM (inactive) and the GI50 [20] was 53.5 µM (inactive).
With CC(C)(C)OCC1NC(=O)[C@@H]2Cc3c([nH]c4ccccc34)C(C3CCCCC3)N2C1=O (stereo not given in full) the GI50 [1] was 19.6 µM (inactive), the GI50 [3] was 22.6 µM (inactive) and the GI50 [4] was 16.5 µM (inactive). The GI50 [5] was 17.4 µM (inactive), the GI50 [6] was 16.1 µM (inactive) and the GI50 [7] was 20.6 µM (inactive). The GI50 [8] was 21.8 µM (inactive), the GI50 [9] was 16.2 µM (inactive) and the GI50 [10] was 23 µM (inactive). The GI50 [11] was 24.2 µM (inactive), the GI50 [12] was 23.9 µM (inactive) and the GI50 [13] was 24.3 µM (inactive). For the same compound, the GI50 [15] was 34.8 µM (inactive), the GI50 [16] was 23.2 µM (inactive) and the GI50 [17] was 18.8 µM (inactive). The GI50 [18] was 32.9 µM (inactive), the GI50 [19] was 16 µM (inactive) and the GI50 [20] was 22 µM (inactive).
For COc1ccccc1NC(=S)NNC(=O)c1cc(-c2ccccc2)nc2ccccc12, the GI50 [1] was 14.7 µM (inactive), the GI50 [2] was 2.08 µM (inactive) and the GI50 [3] was 10.4 µM (inactive). The GI50 [4] was 4.3 µM (inactive), the GI50 [5] was 10 µM (inactive) and the GI50 [6] was 11.7 µM (inactive). The GI50 [7] was 15.9 µM (inactive), the GI50 [8] was 13.9 µM (inactive) and the GI50 [9] was 1.74 µM (inactive). The GI50 [11] was 16.4 µM (inactive), the GI50 [12] was 14.7 µM (inactive) and the GI50 [13] was 26.5 µM (inactive). For the same compound, the GI50 [14] was 11.5 µM (inactive), the GI50 [15] was 12.4 µM (inactive) and the GI50 [16] was 13.9 µM (inactive). For the same compound, the GI50 [17] was 10.3 µM (inactive), the GI50 [18] was 11 µM (inactive) and the GI50 [19] was 3.18 µM (inactive). For the same compound, the GI50 [20] was 17.3 µM (inactive).
